Test results reported in patent US20100184807A1, “Methods to inhibit tumor cell growth by using proton pump inhibitors” (Bio-Quant, Inc., priority 2008, published 2010).

Legend:
Assay type in all cases: cell-based
A498 (kidney cancer) = test: MTT tumor cell growth assay; details: A498 cells, lansoprazole 1-100 μM, 48 hours
Procedure: (§1) In one study, adherent cells were plated approximately 16-24 hours before the day of the experiment in 180 μl growth media. On the day of the experiment, the plated adherent cells were analyzed and counted and suspension cells were plated in 180 μl growth media. 10× lansoprazole compounds and vehicle was prepared. The 10× lansoprazole compounds were prepared by diluting lansoprazole to final concentrations of 100 μM, 30 μM, 10 μM, 3 μM, and 1 μM. A vehicle was prepared by preparing a solution of PBS, equivalent to the volume used for 10 μM lansoprazole wherein the 1× solution constitutes ˜0.06% PBS. 10 μl of the various 10× lansoprazole solutions and the vehicle were added to the cells. The cells were incubated at 37° C., 5% CO2 for 48 hours. The media was then aspirated. The cell suspension was then spun at 1500 RPM for 10 minutes. The media was slowly removed. 200 μl of MTT solution was added to each well with a concentration of 0.863 mg/ml MTT in the growth media. The cells were incubated at 37° C., 5% CO2 for 4 hours and the medium is then aspirated. The plate containing the cell suspension was then spun at 1500 RPM for 10 minutes. The media was slowly removed using a multichannel pipettor. 100 μl of DMSO was then added to each well. The cells were incubated at 37° C., 5% CO2 for 5 minutes and the absorbance was obtained at 560 nm using a Dynex Opsys MR plate reader. The cells used for this procedure were the following cell lines: IGROV1 (ovarian cancer); OVCAR 8 (ovarian cancer); ES-2 (ovarian cancer); CAOV3 (ovarian cancer); OVCAR5 (ovarian cancer); SUDHL4 (lymphoma); RPMI8226 (myeloma); RPMI6666 (Hodgkin's lymphoma); NC37 (lymphoma); GDM-1 (leukemia); MC/CAR (prostate cancer); DU-145 (prostate cancer), J45-01 (leukemia), MOLT3 (leukemia), HUT78, J-gamma-1 (leukemia), MCF7 […], COL0205 (colon cancer), HL60 CLONE 15 (leukemia), T47D (breast cancer), P116 (intestinal cancer), KU812 (leukemia), SW620 (colon cancer), MK92-M1 (lymphoma), MV-4-11 (leukemia), HS578T (breast cancer), HT29 (colon cancer), HCT 116 (colon cancer), CAKI-1 (kidney cancer), A549 (lung cancer), H460 (lung cancer), A3 (colon cancer), MDA-MB231 […], MALME 3M (melanoma), RXF393 (kidney cancer), RS4.11 (leukemia), PC3 (prostate cancer), OVCAR3 (ovarian cancer), MDA-MB435 (melanoma), HUT102 (lymphoma), HL60 (leukemia), CCRF-CEM (leukemia), HUT78 (lymphoma), 786-O (kidney cancer), ACHN (kidney cancer), A498 (kidney cancer), H226 (lung cancer), H522 (lung cancer), HOP92 (lung cancer), SNB 19 (brain cancer), OVCAR4 (ovarian cancer), H9 (lymphoma), UO-31 (kidney cancer), HH (lymphoma), DAUDI (leukemia), LOXIMVI (melanoma), NAMALWA (lymphoma), EKVX (lung cancer), DOHH2 (lymphoma), SNB75 (brain cancer), SKMEL28 (melanoma), SKMEL5 (melanoma), SKMEL2 (melanoma), M14 (melanoma), UACC 257 (melanoma), H332M (lung cancer), KM12 (colon cancer), HCC2998 (colon cancer), G401 (kidney cancer), RS1184 (lymphoma), MC116 (leukemia), MOLT4 (leukemia), JM1 (liver cancer), HOP-62 (lung cancer), HCT-15 (colon cancer), SF-539 (brain cancer), SF295 (brain cancer), ST486 (lymphoma), U251 (brain cancer), and UACC-62 (melanoma).

DAUDI (leukemia) = test: MTT tumor cell growth assay; details: DAUDI cells, lansoprazole 1-100 μM, 48 hours
Procedure: as §1

SW620 (colon cancer) = test: MTT tumor cell growth assay; details: SW620 cells, lansoprazole 1-100 μM, 48 hours
Procedure: as §1

MOLT4 (leukemia) = test: MTT tumor cell growth assay; details: MOLT4 cells, lansoprazole 1-100 μM, 48 hours
Procedure: as §1

J45-01 (leukemia) = test: MTT tumor cell growth assay; details: J45-01 cells, lansoprazole 1-100 μM, 48 hours
Procedure: as §1

HH (lymphoma) = test: MTT tumor cell growth assay; details: HH cells, lansoprazole 1-100 μM, 48 hours
Procedure: as §1

HCC2998 (colon cancer) = test: MTT tumor cell growth assay; details: HCC2998 cells, lansoprazole 1-100 μM, 48 hours
Procedure: as §1

HOP-62 (lung cancer) = test: MTT tumor cell growth assay; details: HOP-62 cells, lansoprazole 1-100 μM, 48 hours
Procedure: as §1

SKMEL2 (melanoma) = test: MTT tumor cell growth assay; details: SKMEL2 cells, lansoprazole 1-100 μM, 48 hours
Procedure: as §1

UACC-62 (melanoma) = test: MTT tumor cell growth assay; details: UACC-62 cells, lansoprazole 1-100 μM, 48 hours
Procedure: as §1

DOHH2 (lymphoma) = test: MTT tumor cell growth assay; details: DOHH2 cells, lansoprazole 1-100 μM, 48 hours
Procedure: as §1

MC116 (leukemia) = test: MTT tumor cell growth assay; details: MC116 cells, lansoprazole 1-100 μM, 48 hours
Procedure: as §1

H226 (lung cancer) = test: MTT tumor cell growth assay; details: H226 cells, lansoprazole 1-100 μM, 48 hours
Procedure: as §1

H522 (lung cancer) = test: MTT tumor cell growth assay; details: H522 cells, lansoprazole 1-100 μM, 48 hours
Procedure: as §1

[1] = MTT tumor cell growth assay; details: MCF7 cells, lansoprazole 1-100 μM, 48 hours
Procedure: as §1

MDA-MB-435 (melanoma) = test: MTT tumor cell growth assay; details: MDA-MB-435 cells, lansoprazole 1-100 μM, 48 hours
Procedure: as §1

A549 (lung cancer) = test: MTT tumor cell growth assay; details: A549 cells, lansoprazole 1-100 μM, 48 hours
Procedure: as §1

SKMEL28 (melanoma) = test: MTT tumor cell growth assay; details: SKMEL28 cells, lansoprazole 1-100 μM, 48 hours
Procedure: as §1

Measured: tumor cell growth reduction

Cc1c(OCC(F)(F)F)ccnc1C[S+]([O-])c1nc2ccccc2[nH]1 (stereo not drawn) [lansoprazole]
significant tumor cell growth reduction: all assays above
